This passage reports IC50, AC50 and EC50 results from ChEMBL document CHEMBL1201862, “PubChem BioAssay data set” (2004).

The source made the active and inactive calls.

One series deals with Exodeoxyribonuclease V (Escherichia coli (strain K12), UniProt P04993+P07648+P08394). The experiment in a line: E. coli RecBCD inhibitors, dose response, counter-screen for AddAB inhibitor project, absorbance, V66 E. coli, mutant T4 phage (AID 492957). Type of series: functional, cell-based, Escherichia coli str. K-12 substr. MG1655. For orientation: The purpose of a counterscreen is to sort out artefacts and off-target activity.

Series [1] is described as follows: Counterscreen for AddAB inhibitors: absorbance-based bacterial cell-based high throughput dose response assay for inhibitors of bacterial viability. [Related pubchem assays (depositor defined):AID435030, AID449728, AID449731, AID488942, AID488955, AID488956]. Type of series: functional.
The target in series [2] is Dual specificity tyrosine-phosphorylation-regulated kinase 1A (Rattus norvegicus, UniProt Q63470). In kind it is biochemical, Homo sapiens.
For series [3], the system named is Escherichia coli. Description: microbe, parasite or virus in culture.
The next series addresses Tumor necrosis factor (Homo sapiens, UniProt P01375). The experiment in a line: TNFa-triggered NF-kB activation inhibitors, SAR follow-up, cell-based, revised (AID 2337). In kind it is functional.
For the next series, the system named is HEK293. The experiment in a line: cells. The settings on record: Homo sapiens.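 Note: cells exposed to compound for 14 hours overnight before viability readout.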
For the next series, the target named is Cytochrome P450 2D6 (Homo sapiens, UniProt P10635).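 Note: CYP2D6 member of a cytochrome P450 panel assay.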
Series [4] has as its system Escherichia coli. Description: microbe, parasite or virus in culture. The source holds these as a separate data set.
A further series addresses Trypsin (Sus scrofa, UniProt P00761). The experiment in a line: porcine trypsin inhibitors, dose response, selectivity assay for Rce1 protease inhibitor project, biochemical, quenched peptide fluorescence, cherry-pick (AID 488789).
In the next series the target is CAAX prenyl protease 2 (Homo sapiens, UniProt Q9Y256). Description: human Rce1 protease inhibitors, dose response, biochemical, yeast membranes, quenched-peptide fluorescence, cherry-pick (AID 588849).
The target of series [5] is Beta-2 adrenergic receptor (Homo sapiens, UniProt P07550). Description: beta2AR agonists driving receptor internalization, dose response, cell-based, FAP fluorogen, flow cytometry, cherry pick 1 (AID 588763). Type of series: functional. A general note: In flow cytometry, cells or beads pass a laser one at a time.
For series [6], the target named is Peroxisome proliferator-activated receptor gamma/Nuclear receptor coactivator 1 (Homo sapiens, UniProt P37231). The experiment in a line: TR-FRET dose response biochemical High Throughput Screening assay for agonists of the steroid receptor coactivator 1 (SRC-1) recruitment by the peroxisome proliferator-activated receptor gamma (PPAR gamma): non-selective agonists. [Related pubchem assays (depositor defined):AID1300, AID1808, AID504735, AID631]. Type of series: protein assay.

In series [7] the target is Peroxisome proliferator-activated receptor gamma/Nuclear receptor coactivator 3 (Homo sapiens, UniProt P37231). The experiment in a line: TR-FRET dose response biochemical High Throughput Screening assay for agonists of the steroid receptor coactivator 3 (SRC-3) recruitment by the peroxisome proliferator-activated receptor gamma (PPAR gamma): non-selective agonists. [Related pubchem assays: 1301 (Confirmation screen.), 1048 (Primary screen.)]. Type of series: functional.

In series [8] the target is Peroxisome proliferator-activated receptor gamma/Nuclear receptor coactivator 2 (Homo sapiens, UniProt P37231). The experiment in a line: TR-FRET dose response biochemical High Throughput Screening assay for agonists of the steroid receptor coactivator 2 (SRC-2) recruitment by the peroxisome proliferator-activated receptor gamma (PPAR gamma): non-selective agonists. [Related pubchem assays: 1297, 1032 ]. In kind it is functional.

For series [9], the target named is T1, Heat shock factor protein 1 (Mus musculus, UniProt P38532).
T1 sequence (P38532 whole entry): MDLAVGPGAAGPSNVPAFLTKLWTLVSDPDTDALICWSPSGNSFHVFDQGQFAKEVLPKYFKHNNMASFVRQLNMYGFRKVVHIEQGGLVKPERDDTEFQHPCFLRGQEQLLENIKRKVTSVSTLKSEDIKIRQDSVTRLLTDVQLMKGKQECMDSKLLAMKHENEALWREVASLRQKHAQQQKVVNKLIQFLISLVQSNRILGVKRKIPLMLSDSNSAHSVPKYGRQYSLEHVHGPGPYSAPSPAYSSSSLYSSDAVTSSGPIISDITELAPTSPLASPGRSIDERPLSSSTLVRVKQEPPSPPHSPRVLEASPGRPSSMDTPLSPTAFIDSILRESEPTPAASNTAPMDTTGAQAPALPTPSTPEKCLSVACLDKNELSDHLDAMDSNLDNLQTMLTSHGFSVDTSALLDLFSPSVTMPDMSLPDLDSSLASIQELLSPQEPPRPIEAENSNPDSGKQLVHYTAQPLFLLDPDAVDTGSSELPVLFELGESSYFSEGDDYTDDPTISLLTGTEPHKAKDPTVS
Description: HSF1 potentiators in luciferase reporter cells, confirmation, cell-based, NIH3T3, luminescence, dose retest (AID 435004).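 Note: stress induced by proteasome inhibitor MG132 added 30 min after compound; luciferase reporter driven by HSF1 response element in NIH3T3 cells; actives raise luminescence as potentiators of the MG132 stress response.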 In kind it is functional. (Reporter assays use an easily measured gene product as a stand-in for the process of interest.)

The target in the next series is Ephrin type-A receptor 4 (Mus musculus, UniProt Q03137). Description: inhibitors of EphA4 binding to KYL peptide, primary screen, biochemical, colorimetric, mouse EphA4 (AID 689). Type of series: functional.
The target in the next series is Cytochrome P450 2C19 (Homo sapiens, UniProt P33261). Description: Cytochrome panel assay with activity outcomes. Panel member name: p450-cyp2c19 Compounds with AC50 equal or less than 10 uM are considered active. In kind it is functional. The settings on record: read-out: AC50.
For another series, the target named is Cytochrome P450 3A4 (Homo sapiens, UniProt P08684).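 Note: CYP3A4 tested as one member of a cytochrome P450 panel screen.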

Cytochrome P450 2D6, sequence (P10635 whole entry): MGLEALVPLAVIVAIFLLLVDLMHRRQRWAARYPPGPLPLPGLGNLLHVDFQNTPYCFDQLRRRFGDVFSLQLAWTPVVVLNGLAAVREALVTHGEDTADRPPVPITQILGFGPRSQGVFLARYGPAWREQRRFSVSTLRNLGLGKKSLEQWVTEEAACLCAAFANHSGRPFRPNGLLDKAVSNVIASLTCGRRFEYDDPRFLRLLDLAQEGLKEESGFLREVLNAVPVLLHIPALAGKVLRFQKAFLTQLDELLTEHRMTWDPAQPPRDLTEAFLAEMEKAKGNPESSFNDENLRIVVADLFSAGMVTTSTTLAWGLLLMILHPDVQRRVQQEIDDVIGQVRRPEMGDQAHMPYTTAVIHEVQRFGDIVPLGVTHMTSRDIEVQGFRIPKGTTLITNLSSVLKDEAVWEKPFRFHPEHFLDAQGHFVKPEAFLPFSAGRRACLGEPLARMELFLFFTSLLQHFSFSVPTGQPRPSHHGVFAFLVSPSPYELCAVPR
Exodeoxyribonuclease V, sequence (P04993 whole entry): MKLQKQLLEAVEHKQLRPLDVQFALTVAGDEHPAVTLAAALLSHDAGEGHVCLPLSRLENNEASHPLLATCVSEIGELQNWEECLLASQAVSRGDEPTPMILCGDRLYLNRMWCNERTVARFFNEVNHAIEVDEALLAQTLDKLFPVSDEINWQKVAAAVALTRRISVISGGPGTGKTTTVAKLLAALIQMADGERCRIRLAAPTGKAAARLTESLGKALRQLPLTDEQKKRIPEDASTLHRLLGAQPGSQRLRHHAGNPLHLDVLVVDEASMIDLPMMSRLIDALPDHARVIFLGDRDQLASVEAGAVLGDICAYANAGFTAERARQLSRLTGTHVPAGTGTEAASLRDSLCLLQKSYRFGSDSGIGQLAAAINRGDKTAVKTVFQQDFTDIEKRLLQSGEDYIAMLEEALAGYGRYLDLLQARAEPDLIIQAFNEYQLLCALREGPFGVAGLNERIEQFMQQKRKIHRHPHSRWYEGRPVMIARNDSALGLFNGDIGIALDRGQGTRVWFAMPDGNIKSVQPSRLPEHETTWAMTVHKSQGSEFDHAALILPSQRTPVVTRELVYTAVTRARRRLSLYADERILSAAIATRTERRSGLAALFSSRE
Exodeoxyribonuclease V, sequence (P07648 whole entry): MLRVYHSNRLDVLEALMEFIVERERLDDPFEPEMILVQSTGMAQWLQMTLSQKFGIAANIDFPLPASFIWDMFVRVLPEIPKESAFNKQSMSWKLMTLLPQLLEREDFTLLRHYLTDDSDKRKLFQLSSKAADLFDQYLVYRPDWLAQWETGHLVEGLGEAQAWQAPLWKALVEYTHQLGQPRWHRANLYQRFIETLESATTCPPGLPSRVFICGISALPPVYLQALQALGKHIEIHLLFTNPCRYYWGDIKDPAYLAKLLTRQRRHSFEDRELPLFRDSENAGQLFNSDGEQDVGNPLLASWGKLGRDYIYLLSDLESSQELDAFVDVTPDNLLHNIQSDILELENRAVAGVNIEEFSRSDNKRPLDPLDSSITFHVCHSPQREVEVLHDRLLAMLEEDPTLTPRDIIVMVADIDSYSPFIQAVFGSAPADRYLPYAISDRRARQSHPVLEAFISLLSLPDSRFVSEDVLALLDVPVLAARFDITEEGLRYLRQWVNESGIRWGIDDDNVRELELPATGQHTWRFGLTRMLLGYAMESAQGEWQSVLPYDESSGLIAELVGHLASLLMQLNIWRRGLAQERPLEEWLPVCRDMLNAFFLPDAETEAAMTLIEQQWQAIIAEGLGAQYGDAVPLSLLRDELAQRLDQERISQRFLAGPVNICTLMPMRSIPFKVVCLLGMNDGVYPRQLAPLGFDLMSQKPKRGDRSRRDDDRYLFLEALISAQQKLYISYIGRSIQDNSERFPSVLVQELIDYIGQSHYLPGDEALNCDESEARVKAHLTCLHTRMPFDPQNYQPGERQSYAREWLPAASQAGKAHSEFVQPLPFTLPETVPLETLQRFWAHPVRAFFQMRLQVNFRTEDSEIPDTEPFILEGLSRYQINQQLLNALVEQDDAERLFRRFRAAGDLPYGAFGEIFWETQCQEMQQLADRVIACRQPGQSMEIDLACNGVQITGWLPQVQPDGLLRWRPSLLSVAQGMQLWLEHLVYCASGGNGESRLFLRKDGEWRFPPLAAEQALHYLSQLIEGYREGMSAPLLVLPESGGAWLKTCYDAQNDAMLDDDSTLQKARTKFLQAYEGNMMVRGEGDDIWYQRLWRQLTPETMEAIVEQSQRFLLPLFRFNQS
Exodeoxyribonuclease V, sequence (P08394 whole entry): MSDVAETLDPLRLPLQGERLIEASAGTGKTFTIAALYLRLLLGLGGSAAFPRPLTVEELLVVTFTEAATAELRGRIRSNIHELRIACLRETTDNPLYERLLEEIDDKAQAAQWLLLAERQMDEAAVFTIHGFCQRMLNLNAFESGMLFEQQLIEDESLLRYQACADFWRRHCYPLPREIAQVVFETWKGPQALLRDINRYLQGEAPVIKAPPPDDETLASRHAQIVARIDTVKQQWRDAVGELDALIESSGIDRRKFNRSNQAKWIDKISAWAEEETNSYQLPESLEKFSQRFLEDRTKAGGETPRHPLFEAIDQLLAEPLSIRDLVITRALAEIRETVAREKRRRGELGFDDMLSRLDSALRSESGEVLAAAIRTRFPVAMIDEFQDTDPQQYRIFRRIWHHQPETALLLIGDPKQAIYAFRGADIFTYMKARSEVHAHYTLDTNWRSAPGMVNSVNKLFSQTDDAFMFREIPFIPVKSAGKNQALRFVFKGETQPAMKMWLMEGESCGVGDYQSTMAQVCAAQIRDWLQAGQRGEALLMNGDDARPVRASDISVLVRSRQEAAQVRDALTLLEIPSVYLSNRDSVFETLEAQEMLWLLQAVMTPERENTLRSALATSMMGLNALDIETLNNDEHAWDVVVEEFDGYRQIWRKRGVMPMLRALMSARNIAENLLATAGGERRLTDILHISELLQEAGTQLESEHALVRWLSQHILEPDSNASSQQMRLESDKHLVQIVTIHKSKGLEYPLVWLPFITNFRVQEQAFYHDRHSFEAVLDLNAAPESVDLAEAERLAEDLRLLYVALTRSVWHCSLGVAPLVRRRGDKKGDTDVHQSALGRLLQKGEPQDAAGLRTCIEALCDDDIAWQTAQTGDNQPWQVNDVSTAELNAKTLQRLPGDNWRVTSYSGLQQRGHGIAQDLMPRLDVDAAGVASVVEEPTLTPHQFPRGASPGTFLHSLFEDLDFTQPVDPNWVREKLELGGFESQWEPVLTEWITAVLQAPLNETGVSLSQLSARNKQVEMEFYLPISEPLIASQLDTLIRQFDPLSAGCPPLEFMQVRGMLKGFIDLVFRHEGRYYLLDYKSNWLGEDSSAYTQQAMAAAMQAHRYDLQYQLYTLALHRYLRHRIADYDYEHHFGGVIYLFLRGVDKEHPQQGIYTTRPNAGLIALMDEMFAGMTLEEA
CAAX prenyl protease 2, sequence (Q9Y256 whole entry): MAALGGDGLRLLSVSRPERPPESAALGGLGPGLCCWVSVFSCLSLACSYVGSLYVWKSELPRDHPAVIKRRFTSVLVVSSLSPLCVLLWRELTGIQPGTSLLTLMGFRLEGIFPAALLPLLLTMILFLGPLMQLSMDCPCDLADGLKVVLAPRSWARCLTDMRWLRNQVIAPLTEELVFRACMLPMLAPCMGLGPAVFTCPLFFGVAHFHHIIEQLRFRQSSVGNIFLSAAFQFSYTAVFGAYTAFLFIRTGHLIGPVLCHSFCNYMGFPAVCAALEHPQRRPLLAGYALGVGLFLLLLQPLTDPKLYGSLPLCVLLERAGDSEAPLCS
Ephrin type-A receptor 4, sequence (Q03137 whole entry): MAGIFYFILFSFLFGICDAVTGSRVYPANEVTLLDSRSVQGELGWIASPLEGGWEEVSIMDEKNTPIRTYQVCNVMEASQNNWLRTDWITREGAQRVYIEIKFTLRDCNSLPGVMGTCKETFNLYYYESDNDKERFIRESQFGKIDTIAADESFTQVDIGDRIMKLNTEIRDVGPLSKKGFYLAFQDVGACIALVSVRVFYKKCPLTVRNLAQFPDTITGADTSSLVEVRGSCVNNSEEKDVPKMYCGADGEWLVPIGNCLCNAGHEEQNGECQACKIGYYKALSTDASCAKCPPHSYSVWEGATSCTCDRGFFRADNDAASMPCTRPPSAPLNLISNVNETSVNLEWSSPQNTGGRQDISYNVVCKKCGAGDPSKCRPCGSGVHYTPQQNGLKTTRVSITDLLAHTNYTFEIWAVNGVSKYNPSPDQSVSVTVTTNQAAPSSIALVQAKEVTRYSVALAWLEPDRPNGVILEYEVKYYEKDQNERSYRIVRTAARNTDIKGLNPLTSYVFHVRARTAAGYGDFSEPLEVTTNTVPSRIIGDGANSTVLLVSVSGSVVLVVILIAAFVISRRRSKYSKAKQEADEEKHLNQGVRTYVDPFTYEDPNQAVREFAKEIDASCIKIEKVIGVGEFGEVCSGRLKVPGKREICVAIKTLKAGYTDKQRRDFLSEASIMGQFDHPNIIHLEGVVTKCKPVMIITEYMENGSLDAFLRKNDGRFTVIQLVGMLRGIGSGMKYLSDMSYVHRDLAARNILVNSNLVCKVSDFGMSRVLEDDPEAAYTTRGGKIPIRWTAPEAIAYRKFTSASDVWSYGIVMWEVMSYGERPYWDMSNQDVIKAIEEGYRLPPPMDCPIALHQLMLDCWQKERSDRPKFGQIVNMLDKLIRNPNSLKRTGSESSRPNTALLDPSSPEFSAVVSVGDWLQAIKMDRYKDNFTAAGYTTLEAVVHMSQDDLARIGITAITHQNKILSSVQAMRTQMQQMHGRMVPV
Tumor necrosis factor, sequence (P01375 whole entry): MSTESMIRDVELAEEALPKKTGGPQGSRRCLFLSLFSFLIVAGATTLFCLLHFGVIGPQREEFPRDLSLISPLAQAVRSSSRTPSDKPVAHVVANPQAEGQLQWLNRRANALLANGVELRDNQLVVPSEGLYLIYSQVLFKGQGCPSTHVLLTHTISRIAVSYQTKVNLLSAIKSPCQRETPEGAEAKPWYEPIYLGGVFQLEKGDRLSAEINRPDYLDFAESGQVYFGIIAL

As for `CCn1cc(C(=O)O)c(=O)c2cnc(N3CCN(C(=S)Nc4ccccc4C(F)(F)F)CC3)nc21`, the IC50 (as a rule, the midpoint of a concentration-inhibition curve) on Exodeoxyribonuclease V was > 39.5 µM (inactive); in series [1], 3.33 µM (active). On to `O=C1NC(=S)SC1=Cc1ccc(F)cc1`, for which the AC50 (as a rule, the concentration giving half of the maximal activity seen) in series [2] was 0.622 µM (active). As to `Cc1c(Nc2ncnc3c2cnn3-c2ccccc2)c(=O)n(-c2ccccc2)n1C`, in the series on Escherichia coli [3], the AC50 is 51.5 µM (active).

Take `O=C(Nc1ccc(F)cc1)c1ccc(CN2CCCCC2)cc1`: the IC50 on Tumor necrosis factor and in the series with HEK293 was > 20 µM (inactive) each time.

As to `Cc1ccc(SCc2noc(C(=O)NCC3CCCO3)c2C(=O)O)cc1C` (stereo unspecified), on Cytochrome P450 2D6, the AC50 entry is on record as “inconclusive”. Regarding `C=CCN1C=C2C(=O)C(C)(OC(=O)c3ccc(OC)cc3)C(=O)C(c3ccco3)=C2C=C1CCCC` (stereo unspecified), in the series on Escherichia coli [4], the AC50 was 22.3 µM (active). With `COC(=O)c1c(-c2ccc(OC)cc2)oc2ccc(-c3ccc(OC)nc3)cc12`, the AC50 is 5.18 µM (active) on Trypsin and 1.15 µM (active) at CAAX prenyl protease 2. With `CC1(C)CC(CCNS(=O)(=O)c2ccccc2)(c2ccccc2)CCO1` (stereo unspecified), the AC50 in the series on Escherichia coli [4] is 52.9 µM (active); in the series on Escherichia coli [3], 251 µM (active). `NC(=O)CC(NC(=O)Cc1ccc(Cl)cc1)c1ccc(NCCCN2CCCC2=O)c([N+](=O)[O-])c1` (stereo unspecified): in series [5], the EC50 (usually the concentration needed to bring the measured effect to its halfway point) was 2.2 µM (active). As for `CCN(CC)CCCNC(=O)CSc1c2c(nc3cc(Cl)ccc13)CCCC2`, the EC50 in series [6] is > 79.4 µM (inactive); in series [7], > 79.4 µM (not active); in [8] it was > 79.4 µM (not active); in series [9], 17.3 µM (active). Regarding `COc1cc(NC(=O)c2ccc(COCC(F)(F)F)cc2)cc(OC)c1OC`, on Ephrin type-A receptor 4, the IC50 is > 100 µM (not active). Also, the AC50 on Cytochrome P450 2C19 was 28.2 µM (inconclusive); on Cytochrome P450 3A4, 22.4 µM (inconclusive); on Cytochrome P450 2D6 it was “inconclusive”.
